Like-named read-outs stand apart in the source and are kept apart here.
Tests used:
[1] = HPLC area of SRH, SRH dehydrated dimer and EGT before and 4 days after concentration (Reference Example); assay type: physicochemical; conditions: sample with 15 parts by mass SRH per 100 parts EGT, PDA 210 nm; for HPLC area, 4 days after concentration: concentrated at 30° C., left at room temperature 4 days
Experimental: In an SRH 0.108 w/w % aqueous solution (1 mL) was dissolved 7.1 mg of EGT (manufactured by Tetrahedron) to prepare a sample having 15 parts by mass of SRH with respect to 100 parts by mass of EGT.
For HPLC analysis, 100 μL of the sample was diluted 10 times with water. The remaining 900 μL was concentrated under reduced pressure using an evaporator at 30° C. After the mixture was left to stand at room temperature for 4 days, the mixture was dissolved in 0.9 mL of water. For HPLC analysis, 100 μL of the solution was diluted 10 times with water.
HPLC analysis was performed under the following conditions.
Column: YMC-Pack ODS-AQ S-5 μM, 12 nm, 250×4.6 mm I.D.
Flow rate: 0.5 mL/min, Temperature: 30° C.
Eluent: 0.1% aqueous formic acid solution
Retention time: SRH: around 6.6 minutes; SRH dehydrated dimer: around 7.5 minutes; EGT: around 8.7 minutes.

OT-II CD4+ T cells = conditions: 30 mM EGT; co-culture with F4/80 macrophages; cited from earlier work
Escherichia coli = conditions: EGT at 5 mM and 50 mM; cited from earlier work
[2] = test system: mouse bone marrow-derived macrophages; conditions: cited from earlier work; for production of cytokines (IL-6, IL-12p40, IL-1β, IL-10): toll-like receptor ligand stimulation

Structure (SMILES) | HPLC area, before concentration [1] | HPLC area, 4 days after concentration [1] | Th17 polarization of OT-II CD4+ T cells (OT-II CD4+ T cells) | growth of Escherichia coli (Escherichia coli) | production of cytokines (IL-6, IL-12p40, IL-1β, IL-10) ([2]; 1 mM EGT) | production of cytokines (IL-6, IL-12p40, IL-1β, IL-10) ([2]; 10 mM EGT) | concentration that activates macrophages [2]
N[C@@H](CCSC1O[C@H](CO)[C@@H](O)[C@H]1O)C(=O)O (stereo partly drawn) [SRH, S-ribosylhomocysteine] | 156690 | 108189 |  |  |  |  | 
C[N+](C)(C)[C@@H](Cc1c[nH]c(=S)[nH]1)C(=O)[O-] [EGT, N,N,N-trimethyl-L-2-thiohistidine] | 13959268 | 14131254 | promoted | suppresses the growth | not | promoted | ≥ 10 mM

Source: patent US20240189283A1, “L-ERGOTHIONEINE-CONTAINING COMPOSITION” (NAGASE & CO., LTD., priority 2021, published 2024)
